According to the NIST ThermoML archive (doi:10.1021/je049572f):

Assay: xn = mol fraction of the nth substance listed
Details: 101.33 kPa, Liquid

CCc1ccccc1 [ethylbenzene] + CN1CCCC1=O
Details	mass density [kg/m3]	viscosity [mPa·s]
303.15 K, x1 = 0.094	1006.25	1.415
303.15 K, x1 = 0.1901	989.43	1.301
303.15 K, x1 = 0.2859	972.61	1.188
303.15 K, x1 = 0.3839	955.98	1.081
303.15 K, x1 = 0.4839	939.38	0.975
303.15 K, x1 = 0.5835	923.22	0.884
303.15 K, x1 = 0.6854	906.91	0.796
303.15 K, x1 = 0.7888	890.73	0.722
303.15 K, x1 = 0.8937	874.71	0.66
303.15 K, x1 = 1	859.95	0.598
313.15 K, x1 = 0.094	997.35	1.216
313.15 K, x1 = 0.1901	980.53	1.124
313.15 K, x1 = 0.2859	963.71	1.033
313.15 K, x1 = 0.3839	947.11	0.94
313.15 K, x1 = 0.4839	930.52	0.846
313.15 K, x1 = 0.5835	914.35	0.772
313.15 K, x1 = 0.6854	898.04	0.705
313.15 K, x1 = 0.7888	881.86	0.643
313.15 K, x1 = 0.8937	865.85	0.588
313.15 K, x1 = 1	851.14	0.537
323.15 K, x1 = 0.094	988.46	1.057
323.15 K, x1 = 0.1901	971.63	0.982
323.15 K, x1 = 0.2859	954.81	0.904
323.15 K, x1 = 0.3839	938.2	0.829
323.15 K, x1 = 0.4839	921.64	0.75
323.15 K, x1 = 0.5835	905.4	0.688
323.15 K, x1 = 0.6854	889.1	0.629
323.15 K, x1 = 0.7888	873	0.576
323.15 K, x1 = 0.8937	856.9	0.525
323.15 K, x1 = 1	842.3	0.483
333.15 K, x1 = 0.094	979.51	0.932
333.15 K, x1 = 0.1901	962.67	0.868
333.15 K, x1 = 0.2859	945.85	0.801
333.15 K, x1 = 0.3839	929.24	0.735
333.15 K, x1 = 0.4839	912.7	0.671
333.15 K, x1 = 0.5835	896.46	0.618
333.15 K, x1 = 0.6854	880.17	0.565
333.15 K, x1 = 0.7888	864	0.52
333.15 K, x1 = 0.8937	847.93	0.474
333.15 K, x1 = 1	833.34	0.437
343.15 K, x1 = 0.094	970.56	0.833
343.15 K, x1 = 0.1901	953.71	0.774
343.15 K, x1 = 0.2859	936.87	0.714
343.15 K, x1 = 0.3839	920.25	0.658
343.15 K, x1 = 0.4839	903.71	0.603
343.15 K, x1 = 0.5835	887.45	0.559
343.15 K, x1 = 0.6854	871.13	0.514
343.15 K, x1 = 0.7888	854.97	0.472
343.15 K, x1 = 0.8937	838.91	0.43
343.15 K, x1 = 1	824.26	0.397
353.15 K, x1 = 0.094	961.56	0.746
353.15 K, x1 = 0.1901	944.7	0.695
353.15 K, x1 = 0.2859	927.86	0.643
353.15 K, x1 = 0.3839	911.2	0.596
353.15 K, x1 = 0.4839	894.64	0.547
353.15 K, x1 = 0.5835	878.35	0.505
353.15 K, x1 = 0.6854	862.01	0.468
353.15 K, x1 = 0.7888	845.86	0.43
353.15 K, x1 = 0.8937	829.76	0.391
353.15 K, x1 = 1	815.18	0.366

C=Cc1ccccc1 [styrene] + CCCCCCCC
Details	mass density [kg/m3]	viscosity [mPa·s]
293.15 K, x1 = 0.1085	719.52	0.537
293.15 K, x1 = 0.2151	736.18	0.537
293.15 K, x1 = 0.3202	753.7	0.541
293.15 K, x1 = 0.4223	772.01	0.551
293.15 K, x1 = 0.523	791.51	0.565
293.15 K, x1 = 0.622	812.07	0.593
293.15 K, x1 = 0.7189	833.64	0.619
293.15 K, x1 = 0.8145	856.59	0.649
293.15 K, x1 = 0.9081	880.84	0.694
293.15 K, x1 = 1	906.29	0.749
298.15 K, x1 = 0.1085	715.45	0.502
298.15 K, x1 = 0.2151	732.06	0.508
298.15 K, x1 = 0.3202	749.53	0.51
298.15 K, x1 = 0.4223	767.81	0.518
298.15 K, x1 = 0.523	787.27	0.533
298.15 K, x1 = 0.622	807.78	0.56
298.15 K, x1 = 0.7189	829.3	0.576
298.15 K, x1 = 0.8145	852.22	0.608
298.15 K, x1 = 0.9081	876.43	0.647
298.15 K, x1 = 1	901.86	0.699
303.15 K, x1 = 0.1085	711.38	0.475
303.15 K, x1 = 0.2151	727.94	0.477
303.15 K, x1 = 0.3202	745.38	0.48
303.15 K, x1 = 0.4223	763.63	0.489
303.15 K, x1 = 0.523	783.03	0.503
303.15 K, x1 = 0.622	803.5	0.527
303.15 K, x1 = 0.7189	824.98	0.544
303.15 K, x1 = 0.8145	847.87	0.571
303.15 K, x1 = 0.9081	872.03	0.609
303.15 K, x1 = 1	897.45	0.654
313.15 K, x1 = 0.1085	703.13	0.423
313.15 K, x1 = 0.2151	719.6	0.427
313.15 K, x1 = 0.3202	737	0.431
313.15 K, x1 = 0.4223	755.16	0.439
313.15 K, x1 = 0.523	774.46	0.451
313.15 K, x1 = 0.622	794.86	0.48
313.15 K, x1 = 0.7189	816.28	0.486
313.15 K, x1 = 0.8145	839.09	0.511
313.15 K, x1 = 0.9081	863.15	0.541
313.15 K, x1 = 1	888.53	0.577
323.15 K, x1 = 0.1085	694.84	0.381
323.15 K, x1 = 0.2151	711.23	0.385
323.15 K, x1 = 0.3202	728.58	0.388
323.15 K, x1 = 0.4223	746.66	0.396
323.15 K, x1 = 0.523	765.88	0.406
323.15 K, x1 = 0.622	786.22	0.427
323.15 K, x1 = 0.7189	807.56	0.437
323.15 K, x1 = 0.8145	830.31	0.46
323.15 K, x1 = 0.9081	854.31	0.484
323.15 K, x1 = 1	879.62	0.513
333.15 K, x1 = 0.1085	686.43	0.351
333.15 K, x1 = 0.2151	702.74	0.351
333.15 K, x1 = 0.3202	720.06	0.352
333.15 K, x1 = 0.4223	738.07	0.359
333.15 K, x1 = 0.523	757.21	0.368
333.15 K, x1 = 0.622	777.49	0.387
333.15 K, x1 = 0.7189	798.77	0.395
333.15 K, x1 = 0.8145	821.46	0.413
333.15 K, x1 = 0.9081	845.37	0.438
333.15 K, x1 = 1	870.64	0.462
343.15 K, x1 = 0.1085	677.99	0.321
343.15 K, x1 = 0.2151	694.24	0.325
343.15 K, x1 = 0.3202	711.51	0.322
343.15 K, x1 = 0.4223	729.46	0.328
343.15 K, x1 = 0.523	748.55	0.337
343.15 K, x1 = 0.622	768.75	0.355
343.15 K, x1 = 0.7189	789.97	0.362
343.15 K, x1 = 0.8145	812.63	0.376
343.15 K, x1 = 0.9081	836.5	0.398
343.15 K, x1 = 1	861.72	0.419
353.15 K, x1 = 0.1085	669.39	0.293
353.15 K, x1 = 0.2151	685.6	0.295
353.15 K, x1 = 0.3202	702.81	0.295
353.15 K, x1 = 0.4223	720.71	0.301
353.15 K, x1 = 0.523	739.76	0.308
353.15 K, x1 = 0.622	759.93	0.322
353.15 K, x1 = 0.7189	781.11	0.333
353.15 K, x1 = 0.8145	803.68	0.349
353.15 K, x1 = 0.9081	827.51	0.362
353.15 K, x1 = 1	852.68	0.381
363.15 K, x1 = 0.1085	660.98	0.27
363.15 K, x1 = 0.2151	677.15	0.268
363.15 K, x1 = 0.3202	694.32	0.273
363.15 K, x1 = 0.4223	712.19	0.277
363.15 K, x1 = 0.523	731.2	0.285
363.15 K, x1 = 0.622	751.34	0.294
363.15 K, x1 = 0.7189	772.48	0.304
363.15 K, x1 = 0.8145	795.04	0.318
363.15 K, x1 = 0.9081	818.82	0.333
363.15 K, x1 = 1	843.99	0.349
